Test results published in US20240124456A1, “AZA-ERGOLINE DERIVATIVE AND PREPARATION METHOD THEREFOR AND APPLICATION THEREOF” (SHANGHAITECH UNIVERSITY, priority 2021, published 2024).
Like-named read-outs stand apart in the source and are kept apart here.

Tests used:
dopamine D2 receptors [1] = target: T1, dopamine D2 receptors (Homo sapiens (Human), UniProt P14416); assay: G protein Gαi1-γ9 dissociation BRET, dopamine D2 receptor functional activity; format: cell-based; settings: for EC50: HEK-293T, I-1 to 19 n=3, I-20 to 27 single determination, read-out: Gai1 BRET EC50; for Emax: relative to the endogenous ligand dopamine, read-out: Gai1 BRET Emax % ± SEM
dopamine D2 receptors [2] = target: T1, dopamine D2 receptors; assay: β-arrestin2 recruitment BRET, dopamine D2 receptor functional activity; format: cell-based; settings: for EC50: HEK-293T, I-1 to 19 n=3, I-20 to 27 single determination, read-out: β-arrestin2 BRET EC50; for Emax: relative to the endogenous ligand dopamine, read-out: β-arrestin2 BRET Emax % ± SEM
[3] = Brain permeability in C57 male mice (plasma and brain tissue concentration); format: in vivo; settings: mouse; for Kp at 0.5 h / Kp at 2 h: brain/plasma; for Kp at 0.5 h: read-out: Brain/blood concentration ratio at 0.5 h; for Kp at 2 h: read-out: Brain/blood concentration ratio at 2.0 h
Experimental: • 2. Test of the brain permeability of compound (−)-I-10 administered to C57 male mice by single intragastric administration, intraperitoneal injection and intravenous injection
Using the same method as the pharmacokinetic experiment, 0.030 mL of blood was taken from each animal through the orbit at 0.5 and 2.0 hours, respectively, and anticoagulated with EDTA-K2. Blood samples were placed on ice after collection, and the plasma was separated by centrifugation within 30 minutes (centrifugation conditions: 5000 rpm, 10 minutes, 4° C.) and stored at −80° C. until analysis. After the animal was euthanized by bloodletting, the brain tissue samples were taken, homogenized with 50% methanol according to the body weight of 1:3 (m/v=1:3), and stored at −80° C. before homogenate analysis. The drug concentrations in plasma and brain tissue were analyzed by LC/MS/MS and compared.

[4] = ip, intraperitoneal injection 1 mg/kg

T1 sequence (P14416 whole entry): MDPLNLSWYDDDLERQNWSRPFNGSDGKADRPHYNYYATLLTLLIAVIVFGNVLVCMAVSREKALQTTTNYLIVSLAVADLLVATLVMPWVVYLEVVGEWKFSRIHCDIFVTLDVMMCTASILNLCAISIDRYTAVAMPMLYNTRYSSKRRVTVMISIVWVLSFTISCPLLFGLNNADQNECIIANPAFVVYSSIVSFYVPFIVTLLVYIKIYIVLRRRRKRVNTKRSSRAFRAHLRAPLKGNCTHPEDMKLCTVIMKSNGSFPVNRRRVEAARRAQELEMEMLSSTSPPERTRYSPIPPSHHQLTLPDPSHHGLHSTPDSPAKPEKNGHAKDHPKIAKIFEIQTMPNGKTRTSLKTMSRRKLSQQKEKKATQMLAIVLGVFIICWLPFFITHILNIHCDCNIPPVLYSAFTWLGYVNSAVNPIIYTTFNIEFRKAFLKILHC

`O=c1ccc2ccc(OCCCCN3CCN4c5cccc6[nH]cc(c56)CC4C3)cc2[nH]1` (racemic) [Compound I-2, 7-(4(4,6,6a,7,9,10-hexahydro-8H-pyrazino[1,2-a]pyrrolo[4,3,2-de]quinolin-8-yl)butoxy)quinolin-2(1H)-one] gave an EC50 (dopamine D2 receptors [1]) of 14.8 nM, an Emax (dopamine D2 receptors [1]) of 101% and an EC50 (dopamine D2 receptors [2]) of 49 nM. The Emax (dopamine D2 receptors [2]) was 103%.
Compound `CN(C)C(=O)N[C@H]1CC[C@H](CCN2CCN3c4cccc5[nH]cc(c45)C[C@@H]3C2)CC1` [(+)-I-10] has an EC50 (dopamine D2 receptors [1]) of 9.55 nM, an Emax (dopamine D2 receptors [1]) of 86% and an EC50 (dopamine D2 receptors [2]) of 5.25 nM. For the same compound, the Emax (dopamine D2 receptors [2]) was 90%.
In the case of `CN(C)C(=O)N[C@H]1CC[C@H](CCN2CCN3c4cccc5[nH]cc(c45)C[C@H]3C2)CC1` [(−)-I-10], the EC50 (dopamine D2 receptors [1]) is reported as 1.38 nM, the Emax (dopamine D2 receptors [1]) is reported as 78% and the concentration at 0.5 h ([3]; brain, intravenous injection 1 mg/kg, read-out: Drug concentration at 0.5 h in brain) is reported as 219 ± 21 ng/mL. It also gave a concentration at 2 h ([3]; brain, intravenous injection 1 mg/kg, read-out: Drug concentration at 2.0 h in brain) of 77 ± 7 ng/mL, a concentration at 0.5 h ([3]; brain, ip, intraperitoneal injection 1 mg/kg, read-out: Drug concentration at 0.5 h in brain) of 193 ± 13 ng/mL and a concentration at 2 h ([3]; brain, ip, intraperitoneal injection 1 mg/kg, read-out: Drug concentration at 2.0 h in brain) of 42.7 ± 4 ng/mL. The concentration at 0.5 h ([3]; brain, oral administration 5 mg/kg, read-out: Drug concentration at 0.5 h in brain) was 346 ± 217 ng/mL, the concentration at 2 h ([3]; brain, oral administration 5 mg/kg, read-out: Drug concentration at 2.0 h in brain) was 169 ± 23 ng/mL and the Kp at 0.5 h ([3]; intravenous injection 1 mg/kg) was 1.65. The Kp at 2 h ([3]; intravenous injection 1 mg/kg) was 3.09, the Kp at 0.5 h [3, 4] was 1.56 and the Kp at 2 h [3, 4] was 3.1. It also gave a Kp at 0.5 h ([3]; oral administration 5 mg/kg) of 1.5, a Kp at 2 h ([3]; oral administration 5 mg/kg) of 1.78 and a concentration at 0.5 h ([3]; plasma, intravenous injection 1 mg/kg, read-out: Drug concentration at 0.5 h in plasma) of 133 ± 19 ng/mL. The concentration at 2 h ([3]; plasma, intravenous injection 1 mg/kg, read-out: Drug concentration at 2.0 h in plasma) was 24.9 ± 5 ng/mL, the concentration at 0.5 h ([3]; plasma, ip, intraperitoneal injection 1 mg/kg, read-out: Drug concentration at 0.5 h in plasma) was 124 ± 15 ng/mL and the concentration at 2 h ([3]; plasma, ip, intraperitoneal injection 1 mg/kg, read-out: Drug concentration at 2.0 h in plasma) was 13.8 ± 2.7 ng/mL. It also gave a concentration at 0.5 h ([3]; plasma, oral administration 5 mg/kg, read-out: Drug concentration at 0.5 h in plasma) of 231 ± 153 ng/mL, a concentration at 2 h ([3]; plasma, oral administration 5 mg/kg, read-out: Drug concentration at 2.0 h in plasma) of 95 ± 16 ng/mL and an EC50 (dopamine D2 receptors [2]) of 2.75 nM. For the same compound, the Emax (dopamine D2 receptors [2]) was 89%.
For `O=C1CCc2ccc(OCCCCN3CCN4c5cccc6[nH]cc(c56)CC4C3)cc2N1` (stereo not shown) [Compound I-1, 7-(4(4,6,6a,7,9,10-hexahydro-8H-pyrazino[1,2-a]pyrrolo[4,3,2-de]quinolin-8-yl)butoxy)-3,4-dihydroquinolin-2(1H)-one], the EC50 (dopamine D2 receptors [1]) was 16.2 nM, the Emax (dopamine D2 receptors [1]) was 100% and the EC50 (dopamine D2 receptors [2]) was 56.2 nM. It also gave an Emax (dopamine D2 receptors [2]) of 100%.
